Where “and” joins values, the source holds several entries; their conditions need not be identical. Identical values can stand only once. Like-named read-outs stand apart in the source and are kept apart here.
How the values were obtained:
AChE [1] = molecular target: T1, AChE (Electrophorus electricus, UniProt O42275); assay: biochemical; details: mean ± SD, three independent experiments; read-out: AChEI IC50
T1 construct: purchased Aldrich
Procedure: (§1) All enzymes and reagents required for the assay were obtained from Aldrich. […] Each well contained 50 µL potassium phosphate buffer (KH2PO4/ K2HPO4, 0.1 M, pH 8), 25 µL sample solution, and 25 µL enzyme (final concentration 0.22 U/mL in buffer). Control experiments were also performed under the same conditions without enzyme. After incubation at room temperature for 15 min, 125 µL DTNB (3 mM in buffer) was added and the characterization of enzymatic reaction was spectrometrically performed at 405 nm followed by the addition of substrate (ATCI 3 mM in water) after 5–10 min. The IC50 values were determined graphically from inhibition curves (log inhibitor concentration vs. percent of inhibition). Also, the same method was used for the BuChE inhibition assay.

BuChE [2] = molecular target: T2, BuChE (Homo sapiens, UniProt P06276); assay: biochemical; details: mean ± SD, three independent experiments; read-out: BuChEI IC50
T2 construct: purchased Aldrich
Procedure: as §1

BuChE [3] = molecular target: T2, BuChE; parameters: method as in PMID 29421707, PMID 27914694, PMID 31327094, doi:10.1007/s00044-018-2187-8, PMID 25531792; details: literature compounds of Fig. 1; read-out: BuChEI, IC50; cited from earlier work
AChE [4] = molecular target: T1, AChE; parameters: method as in PMID 29421707, PMID 27914694, PMID 25531792; details: literature compounds of Fig. 1; read-out: AChEI, IC50; cited from earlier work
Aβ [5] = tested on: Aβ; parameters: method as in PMID 29407958, PMID 29763808, PMID 32131034; details: at 100 μM; cited from earlier work
neuronal cell line = tested on: neuronal cell line; parameters: method as in PMID 29107423; details: cited from earlier work
Aβ [6] = tested on: Aβ; parameters: method as in PMID 29407958, PMID 29763808, PMID 32131034; details: at 25 μM; cited from earlier work
BuChE [7] = molecular target: T2, BuChE; assay: Kinetic study of BuChE inhibition (Lineweaver-Burk and secondary plot); type: biochemical
Procedure: The kinetic study was performed to investigate the mechanism of inhibition by compound 10h against BuChE.
The Lineweaver–Burk reciprocal plot was provided by plotting 1/V against 1/[S] at variable concentrations of butyrylthiocholine as the substrate (187.5, 750, 1500, 3000 µM).

[8] = molecular target: AChE-induced Aβ1-40 peptide aggregation (Homo sapiens, UniProt P05067); assay: biochemical; details: read-out: % Inhibition AChE-induced Aβ aggregation
Procedure: (§2) Inhibition of Aβ1-42 self-aggregation was measured by ThT fluorescence assay. The details of the method were reported in our previous study. To study Aβ42 aggregation inhibition, a reported method, based on the fluorescence emission of ThT was followed. Briefly, the mixtures of Aβ1-40 peptide (Bachem company, Switzerland) and AChE (Sigma, Electrophorus electricus), in the presence or absence of the test inhibitor were incubated for 24 h at room temperature.

Aβ1-42 = Aβ1-42 (Homo sapiens, UniProt P05067); assay: biochemical; details: read-out: % Inhibition self-induced Aβ1–42 aggregation
Procedure: as §2

PC12 cells = assay: Neuroprotection against Aβ25-35-induced damage, MTT assay; type: cell-based; details: up to 50 μM, Aβ25-35 5 μM
Procedure: Compound 10h was selected to study the neuroprotective ability using PC12 cell injury induced by Aβ25–35 by MTT assay.
MTT reduction assay was used to evaluate the neuroprotective effect of compound 10h on neuronal PC12 cell damage induced by Aβ25-35. The cells were grown in monolayer culture on collagen-coated plates at 37 °C in a humidified atmosphere of 5% CO2. Neuronal PC12 cells were plated at a density of 5 × 10^5 cells/well on 96-well plates. The cells were pre-incubated with compound 10h for 3 h before human Aβ 25–35 (final concentration of 5 μM) was added. After 24 h, 90 μL the medium was taken out and 20 μL of MTT (0.5 mg/ml dissolved in RPMI containing phenol red) was added and incubated for an additional 2 h at 37 °C. The absorbance (A570 nm) was measured using a Bio-Rad microplate reader (Model 680, Bio-Rad). The details were reported in our previous work.

[9] = Metal chelation studies by UV spectra and molar ratio method; type: physicochemical
Procedure: The stoichiometry of complex 10h-Cu^2+ was also studied (Fig. 4) due to important role of copper ions in AD [38]. The concentration of the test compound 10h was 20 μM and the final concentration of Cu^2+ ranged from 0–44 μM with 4 μM intervals at 303.5 nm.
The plot was obtained by the corresponding absorption against the mole fraction of Cu^2+ to ligand 10h. According to the plot, the ratio 1:1 complexation ration of 10h-Cu^2+ can be seen at the fracture point of the plot with the mole fraction of […].
To study the metal chelating ability, the solutions of compound 10h and Fe^2+, Cu^2+, and Zn^2+ ions (from FeSO4, CuCl2.2H2O, and ZnCl2) were prepared in methanol. The mixture of compound 10h (1 mL) and the test ion solutions (1 mL) with the same final concentration of 20 µM in a 1 cm quartz cuvette was incubated at room temperature for 30 min. Then, the absorption spectra were recorded in the range of 200–600 nm.
The stoichiometry of complex 10h-Cu^2+ was also studied using the molar ratio method. The concentration of compound 10h was 20 μM and the final concentration of Cu^2+ ranged from 0–44 μM with 4 μM intervals at 303.5 nm. The plot was obtained by the corresponding absorption versus mole fraction of Cu^2+ to ligand 10h. All experiments were performed in triplicate.

T2 sequence (P06276 29-602): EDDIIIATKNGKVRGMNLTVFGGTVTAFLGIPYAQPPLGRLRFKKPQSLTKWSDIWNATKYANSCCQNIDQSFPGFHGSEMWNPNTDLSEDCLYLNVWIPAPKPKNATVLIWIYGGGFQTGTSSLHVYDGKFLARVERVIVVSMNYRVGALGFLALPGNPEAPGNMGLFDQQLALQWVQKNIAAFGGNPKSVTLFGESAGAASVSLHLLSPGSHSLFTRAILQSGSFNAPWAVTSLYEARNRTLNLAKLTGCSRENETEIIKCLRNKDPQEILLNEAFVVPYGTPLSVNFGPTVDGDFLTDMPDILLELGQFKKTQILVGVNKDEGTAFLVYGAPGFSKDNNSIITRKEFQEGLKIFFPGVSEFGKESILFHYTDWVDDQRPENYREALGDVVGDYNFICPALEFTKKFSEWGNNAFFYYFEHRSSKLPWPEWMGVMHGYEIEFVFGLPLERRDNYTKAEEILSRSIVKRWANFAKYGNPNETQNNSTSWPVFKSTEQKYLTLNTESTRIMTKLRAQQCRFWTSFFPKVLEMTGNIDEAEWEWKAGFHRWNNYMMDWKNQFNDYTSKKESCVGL
T1 sequence (O42275 24-633): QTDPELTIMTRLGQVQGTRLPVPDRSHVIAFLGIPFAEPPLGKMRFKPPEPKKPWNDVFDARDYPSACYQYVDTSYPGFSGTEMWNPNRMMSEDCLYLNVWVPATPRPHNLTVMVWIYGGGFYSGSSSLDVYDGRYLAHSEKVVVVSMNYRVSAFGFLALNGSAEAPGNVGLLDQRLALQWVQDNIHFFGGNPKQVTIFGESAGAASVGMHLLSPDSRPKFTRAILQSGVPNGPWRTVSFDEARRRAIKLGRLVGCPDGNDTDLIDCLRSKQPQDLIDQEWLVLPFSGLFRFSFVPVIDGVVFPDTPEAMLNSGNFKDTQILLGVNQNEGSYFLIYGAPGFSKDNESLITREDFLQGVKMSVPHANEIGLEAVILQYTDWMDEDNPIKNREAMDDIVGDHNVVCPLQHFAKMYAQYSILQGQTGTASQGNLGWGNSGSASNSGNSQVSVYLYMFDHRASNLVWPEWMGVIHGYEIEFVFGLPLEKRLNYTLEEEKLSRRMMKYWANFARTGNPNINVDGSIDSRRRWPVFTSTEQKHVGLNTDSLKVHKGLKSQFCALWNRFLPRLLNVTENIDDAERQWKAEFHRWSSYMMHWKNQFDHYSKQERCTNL
Chain of AChE-induced Aβ1-40 peptide aggregation (P05067 672-711): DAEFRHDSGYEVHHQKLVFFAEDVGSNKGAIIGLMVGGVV
Chain of Aβ1-42 (P05067 672-713 limits assumed): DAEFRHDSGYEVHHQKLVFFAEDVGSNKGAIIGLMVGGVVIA

SMILES | IC50 (AChE [1]) | IC50 (BuChE [2]) | also measured
CN(C)/C=C/C(=O)c1cc2ccc(OCc3cn(Cc4ccccc4)nn3)cc2oc1=O [Compound 10a, (E)-7-((1-Benzyl-1H-1,2,3-triazol-4-yl)methoxy)-3-(3-(dimethylamino)acryloyl)-2H-chromen-2-one] | > 100 µM | 34.41 ± 0.23 µM | 
CN(C)/C=C/C(=O)c1cc2ccc(OCc3cn(Cc4ccccc4Br)nn3)cc2oc1=O [Compound 10k, (E)-7-((1-(2-Bromobenzyl)-1H-1,2,3-triazol-4-yl)methoxy)-3-(3-(dimethylamino)acryloyl)-2H-chromen-2-one] | > 100 µM | > 100 µM | 
CN(C)/C=C/C(=O)c1cc2ccc(OCc3cn(Cc4ccc(F)cc4)nn3)cc2oc1=O [Compound 10g, (E)-3-(3-(Dimethylamino)acryloyl)-7-((1-(4-fluorobenzyl)-1H-1,2,3-triazol-4-yl)methoxy)-2H-chromen-2-one] | > 100 µM | > 100 µM | 
CN(C)/C=C/C(=O)c1cc2ccc(OCc3cn(Cc4cccc(Br)c4)nn3)cc2oc1=O [Compound 10l, (E)-7-((1-(3-Bromobenzyl)-1H-1,2,3-triazol-4-yl)methoxy)-3-(3-(dimethylamino)acryloyl)-2H-chromen-2-one] | > 100 µM | 65.96 ± 0.004 µM | 
Cc1ccccc1Cn1cc(COc2ccc3cc(C(=O)/C=C/N(C)C)c(=O)oc3c2)nn1 [Compound 10b, (E)-3-(3-(Dimethylamino)acryloyl)-7-((1-(2-methylbenzyl)-1H-1,2,3-triazol-4-yl)methoxy)-2H-chromen-2-one] | > 100 µM | 35.73 ± 0.21 µM | 
O=C(NCc1cc[n+](Cc2cccc(F)c2)cc1)c1cc2ccccc2oc1=O [compound A] |  |  | IC50 (BuChE [3]): 12.2 µM
COc1ccc(Cn2cc(COc3ccc4ccc(=O)oc4c3)nn2)cc1 [compound B] |  |  | IC50 (AChE [4]): 3.4 µM; IC50 (BuChE [3]): 1.1 µM
CN(C)/C=C/C(=O)c1cc2ccc(OCc3cn(Cc4ccccc4Cl)nn3)cc2oc1=O [Compound 10i, (E)-7-((1-(2-Chlorobenzyl)-1H-1,2,3-triazol-4-yl)methoxy)-3-(3-(dimethylamino)acryloyl)-2H-chromen-2-one] | > 100 µM | > 100 µM | 
COc1cccc(Cn2cc(COc3ccc4cc(C(=O)/C=C/N(C)C)c(=O)oc4c3)nn2)c1 [Compound 10d, (E)-3-(3-(Dimethylamino)acryloyl)-7-((1-(3-methoxybenzyl)-1H-1,2,3-triazol-4-yl)methoxy)-2H-chromen-2-one] | > 100 µM | 23.44 ± 0.07 µM | 
CN(C)CCC(=O)c1ccc(-c2ccc(C(=O)CCN(C)C)cc2)cc1 [compound D] |  |  | IC50 (AChE [4]): 19.9 µM; IC50 (BuChE [3]): 0.32 µM
CN(C)/C=C/C(=O)c1cc2ccc(OCc3cn(Cc4ccc(Cl)cc4)nn3)cc2oc1=O [Compound 10j, (E)-7-((1-(4-Chlorobenzyl)-1H-1,2,3-triazol-4-yl)methoxy)-3-(3-(dimethylamino)acryloyl)-2H-chromen-2-one] | > 100 µM | > 100 µM | 
Clc1ccc(Cn2cc(CSc3nnc(-c4ccccc4)c(-c4ccccc4)n3)nn2)cc1 [compound C] |  |  | IC50 (BuChE [3]): 6.41 µM
COc1ccc(-c2cc3ccc(OCCCn4cc(CNC(=O)CCCCC5CCSS5)nn4)cc3oc2=O)cc1OC (centres unmarked) [compound F] |  |  | Aß self aggregation inhibition (Aβ [5]): 51.2%
Cc1ccc(Cn2cc(COc3ccc4cc(C(=O)/C=C/N(C)C)c(=O)oc4c3)nn2)cc1 [Compound 10c, (E)-3-(3-(Dimethylamino)acryloyl)-7-((1-(4-methylbenzyl)-1H-1,2,3-triazol-4-yl)methoxy)-2H-chromen-2-one] | > 100 µM | > 100 µM | 
N=c1oc2ccccc2cc1C(=O)Nc1cc(Br)ccc1NCc1cn(CCC2C(=O)c3ccccc3C2=O)nn1 [compound G] |  |  | IC50 (neuronal cell line): 7.9 µM
Cc1cc(=O)oc2cc(OCCCCSC(=S)N3CCCCC3)ccc12 [compound E] |  |  | Aß aggregation inhibition (Aβ [6]): 40.19%
CN(C)/C=C/C(=O)c1cc2ccc(OCc3cn(Cc4cccc(F)c4)nn3)cc2oc1=O [Compound 10f, (E)-3-(3-(Dimethylamino)acryloyl)-7-((1-(3-fluorobenzyl)-1H-1,2,3-triazol-4-yl)methoxy)-2H-chromen-2-one] | > 100 µM | 59.58 ± 0.05 µM | 
CN(C)/C=C/C(=O)c1cc2ccc(OCc3cn(Cc4ccccc4F)nn3)cc2oc1=O [Compound 10e, (E)-3-(3-(Dimethylamino)acryloyl)-7-((1-(2-fluorobenzyl)-1H-1,2,3-triazol-4-yl)methoxy)-2H-chromen-2-one] | > 100 µM | > 100 µM | 
CN(C)/C=C/C(=O)c1cc2ccc(OCc3cn(Cc4ccc(F)c(F)c4)nn3)cc2oc1=O [Compound 10h, (E)-7-((1-(3,4-Difluorobenzyl)-1H-1,2,3-triazol-4-yl)methoxy)-3-(3-(dimethylamino)acryloyl)-2H-chromen-2-one] | > 100 µM | 21.7 ± 0.57 µM | inhibition pattern (Lineweaver-Burk plot) (BuChE [7]; BuChE, inhibitor 0, 10.7, 42.9, 85.8 µM): mixed-type inhibition; Ki (BuChE [7]; from secondary plot of slopes vs inhibitor concentration, substrate butyrylthiocholine): 38.3 µM; inhibition at 100 µM [8]: 29.4 ± 1.5%; inhibition at 10 µM (Aβ1-42): 32.6 ± 2%; neuroprotective effect on Aβ-induced PC12 cell injury (PC12 cells): no neuroprotective effect; metal chelating ability (in words) ([9]; Fe2+, Cu2+, Zn2+): able to chelate biometals; UV absorption peaks after interaction with Cu2+ ([9]; methanol, 20 µM each, 30 min): 303.5 nm and 382.4 nm; UV absorption peaks after interaction with Fe2+ ([9]; methanol, 20 µM each, 30 min): 303.5 nm and 390.9 nm; UV absorption peaks after interaction with Zn2+ ([9]; methanol, 20 µM each, 30 min): 299.2 nm and 388.7 nm; UV absorption peaks of compound alone ([9]; methanolic solution 20 µM): 309.9 nm and 386.7 nm
Nc1c2c(nc3ccccc13)CCCC2 [Tacrine, reference compound] |  |  | inhibition at 100 µM [8]: 6.7 ± 0.9%; inhibition at 10 µM (Aβ1-42): 7.6 ± 1.4%
CN(C)/C=C/C(=O)c1cc2ccc(OCc3cn(Cc4ccc(Br)cc4)nn3)cc2oc1=O [Compound 10m, (E)-7-((1-(4-Bromobenzyl)-1H-1,2,3-triazol-4-yl)methoxy)-3-(3-(dimethylamino)acryloyl)-2H-chromen-2-one] | > 100 µM | > 100 µM | 

From PMC7592376, “Design and synthesis of multi-target directed 1,2,3-triazole-dimethylaminoacryloyl-chromenone derivatives with potential use in Alzheimer's disease” (BMC Chemistry, 2020)
